Patent publication US9339476B2, “Implantable meshes for controlling the movement of fluids” (Arch Biosurgery, Inc., priority 2013, dated 2016)

Experiments:
[1] = system: 4 mm diameter biopsy punch lesion of the liver's right lobe with brisk bleeding; test: Rat liver biopsy punch model, hemostasis; type: in vivo, Sprague Dawley rats
Experimental: (§1) A self-assembling peptide having the sequence RADARADARADARADA (RADA4; SEQ. ID. NO: 1) acetate salt was reconstituted in sterile water to 3%. The material was stored at […] in a cooler with cold pack over it until brought to the study facility. Lyo cakes of 3 vials were crushed using a spatula and then combined in 1 vial. The combined content was reconstituted with 1 mL volume of sterile water for injection. The lyophilized formulation went in solution easily in 1-2 minutes and was vortexed for 30 seconds before use.
(§2) Four female Sprague Dawley rats each weighing 300-320 g were anesthetized with a mixture of xylaxine/ketamine. When a suitable plane of anesthesia was reached, a ventral midline incision was made in the abdomen allowing for visualization and manipulation of the liver's right lobe. Further manipulation to expose the portal vein was performed to allow for withdrawal of 1 mL of blood for measurement of blood activated clotting time (ACT).
A wooden spatula was then placed behind the right lobe of the liver and a 4 mm diameter biopsy punch was used to remove a full thickness 4 mm diameter section of the liver resulting in a lesion with brisk bleeding.
Immediately, 0.5 mL of a 3% aqueous solution of pre-formulated RADA4 peptide reconstituted in sterile water was applied to the biopsy site using a 22½ gauge needle.

[2] = Reconstitution of lyophilized formulation in sterile water for injection; type: physicochemical; details: lyo cakes of 3 vials combined, reconstituted with 1 mL sterile water for injection
Experimental: as §1

[3] = system: second 4 mm diameter biopsy punch lesion in the right lobe of the liver; test: Rat liver biopsy punch model, hemostasis in the presence of anticoagulant (heparin); type: in vivo, Sprague Dawley rats
Experimental: (§3) To determine whether hemostasis could be achieved in the presence of anticoagulant, heparin was then administered to the animal at a dose of 500 IU per kg body weight injected directly into the portal vein. Two minutes after heparin injection, a second 4 mm diameter biopsy punch lesion was made adjacent to the first lesion in the right lobe of the liver and 0.5 ml of a 3% aqueous RADA4 peptide solution was again added to the lesion.

[4] = system: blood activated clotting time (ACT); test: Blood activated clotting time (ACT); type: in vivo, Sprague Dawley rats; details: 8 minutes following heparin injection (500 IU/kg, portal vein); baseline approximately 110 seconds
Experimental: as §2, §3

RADARADARADARADA [RADA4]
time until bleeding stopped completely ([1]; 0.5 mL of 3% aqueous solution applied to 4 mm liver biopsy site, no anticoagulant): ≤ 30 s | producing hemostasis (overall outcome) ([1]; 3% aqueous solution, absence of clinically significant anticoagulation): successful | stability of hemostasis at later assessment ([1]; 10 minutes following application, no anticoagulant): stable without further bleeding | time for lyophilized formulation to go in solution [2]: 1 to 2 min | time until bleeding stopped ([3]; 0.5 ml of 3% aqueous solution, lesion made two minutes after heparin 500 IU per kg into the portal vein): ≤ 30 s | producing hemostasis (overall outcome) ([3]; 3% aqueous solution, presence of clinically significant anticoagulation): successful | stability of hemostasis at later assessment ([3]; at 10 minutes, after heparin 500 IU per kg): stable

heparin
ACT measurement [4]: greater than 1,300 seconds
